Literature values, collected in US11141509B2, “Method for loading at least two powder substances into recesses provided at a stent surface” (CID S.p.A., priority 2016, dated 2021).

Conditions: Cre8 coronary stent, Amphilimus formulation; Eurointervention 2012; 7:1087-1094

in vivo release after coronary implantation: greater than 30 days
Structure (SMILES): CO[C@H]1C[C@@H]2CC[C@@H](C)[C@@](O)(O2)C(=O)C(=O)N2CCCC[C@H]2C(=O)O[C@H]([C@H](C)C[C@@H]2CC[C@@H](O)[C@H](OC)C2)CC(=O)[C@H](C)/C=C(\C)[C@@H](O)[C@@H](OC)C(=O)[C@H](C)C[C@H](C)/C=C/C=C/C=C/1C [Sirolimus]
